Test system: MV-4-11 cells
Assay: Gene expression microarray analysis (Affymetrix PrimeView) and GSEA
Type: cell-based, human
Set-up: RFU PODN (11730768_x_at) / Fold change /veh PODN (11730768_x_at) / RFU LINC00158 (11744669_a_at) / Fold change /veh LINC00158 (11744669_a_at) / RFU DUSP10 (11751237_a_at) / Fold change /veh DUSP10 (11751237_a_at) / RFU ID3 (11757404_x_at) / Fold change /veh ID3 (11757404_x_at) / RFU PLEKHG5 (11737974_s_at) / Fold change /veh PLEKHG5 (11737974_s_at) / RFU LRRC4B (11730491_at) / Fold change /veh LRRC4B (11730491_at) / RFU GIMAP4 (11747438_a_at) / Fold change /veh GIMAP4 (11747438_a_at) / RFU KRT8 (11758183_x_at) / Fold change /veh KRT8 (11758183_x_at) / RFU CNN1 (11734310_a_at) / Fold change /veh CNN1 (11734310_a_at) / RFU VPS37D (11726825_at) / Fold change /veh VPS37D (11726825_at) / RFU C10orf10 (11716522_x_at) / Fold change /veh C10orf10 (11716522_x_at) / RFU KIR2DL2 /// KIR2DL4 /// KIR2DL5A /// KIR2DL5B /// KIR2DS1 /// KIR2DS2 /// KIR2DS3 /// KIR2DS4 /// KIR3DL3 /// KIR3DL3 /// KIR3DS1 (11738374_at) / Fold change /veh KIR2DL2 /// KIR2DL4 /// KIR2DL5A /// KIR2DL5B /// KIR2DS1 /// KIR2DS2 /// KIR2DS3 /// KIR2DS4 /// KIR3DL3 /// KIR3DL3 /// KIR3DS1 (11738374_at) / RFU C1QL1 (11718748_at) / Fold change /veh C1QL1 (11718748_at) / RFU TMPRSS4 (11747572_a_at) / Fold change /veh TMPRSS4 (11747572_a_at) / RFU HAMP (11756126_x_at) / Fold change /veh HAMP (11756126_x_at) / RFU RNFT2 (11725882_a_at) / Fold change /veh RNFT2 (11725882_a_at) / RFU NR4A2 (11747474_a_at) / Fold change /veh NR4A2 (11747474_a_at) / RFU ABCC12 (11746883_a_at) / Fold change /veh ABCC12 (11746883_a_at) / RFU TMEM136 (11760407_x_at) / Fold change /veh TMEM136 (11760407_x_at) / RFU CLDN22 /// WWC2 (11732394_at) / Fold change /veh CLDN22 /// WWC2 (11732394_at) / RFU HLA-DPB1 (11760878_x_at) / Fold change /veh HLA-DPB1 (11760878_x_at) / RFU SPINT1 (11716480_a_at) / Fold change /veh SPINT1 (11716480_a_at) / RFU GAP43 (11754022_s_at) / Fold change /veh GAP43 (11754022_s_at) / RFU A4GNT (11735810_at) / Fold change /veh A4GNT (11735810_at) / RFU PRB3 (11715151_x_at) / Fold change /veh PRB3 (11715151_x_at) / RFU TUBB4B (11761932_at) / Fold change /veh TUBB4B (11761932_at) / RFU CAPN14 (11732068_a_at) / Fold change /veh CAPN14 (11732068_a_at) / RFU TMCC2 (11721928_a_at) / Fold change /veh TMCC2 (11721928_a_at) / RFU IRGQ (11745062_a_at) / Fold change /veh IRGQ (11745062_a_at) / RFU FAM174B (11720279_a_at) / Fold change /veh FAM174B (11720279_a_at) / RFU TMPRSS4 (11748680_a_at) / Fold change /veh TMPRSS4 (11748680_a_at) / RFU FAM212B (11763350_a_at) / Fold change /veh FAM212B (11763350_a_at) / RFU PLEKHG5 (11743358_a_at) / Fold change /veh PLEKHG5 (11743358_a_at) / RFU ZSCAN30 (11745921_a_at) / Fold change /veh ZSCAN30 (11745921_a_at) / RFU CMKLR1 (11741424_a_at) / Fold change /veh CMKLR1 (11741424_a_at) / RFU LOC101060620 /// MAPK8IP1 (11723275_at) / Fold change /veh LOC101060620 /// MAPK8IP1 (11723275_at) / RFU SPTSSB (11747773_x_at) / Fold change /veh SPTSSB (11747773_x_at) / RFU PRSS12 (11739890_at) / Fold change /veh PRSS12 (11739890_at) / RFU BIN1 (11741810_x_at) / Fold change /veh BIN1 (11741810_x_at) / RFU WNT11 (11732464_a_at) / Fold change /veh WNT11 (11732464_a_at) / RFU C10orf10 (11716521_a_at) / Fold change /veh C10orf10 (11716521_a_at) / RFU C5orf56 (11738089_at) / Fold change /veh C5orf56 (11738089_at) / RFU CYB561 (11721691_x_at) / Fold change /veh CYB561 (11721691_x_at) / RFU ANKRD19P (11752326_a_at) / Fold change /veh ANKRD19P (11752326_a_at) / RFU OR2T12 /// OR2T33 /// OR2T8 (11738714_s_at) / Fold change /veh OR2T12 /// OR2T33 /// OR2T8 (11738714_s_at) / RFU VCAN (11748164_a_at) / Fold change /veh VCAN (11748164_a_at) / RFU JSRP1 (11732532_at) / Fold change /veh JSRP1 (11732532_at) / RFU KRTAP10-11 (11738290_x_at) / Fold change /veh KRTAP10-11 (11738290_x_at) / RFU MYO3A (11730013_a_at) / Fold change /veh MYO3A (11730013_a_at) / RFU EBF3 (11725865_a_at) / Fold change /veh EBF3 (11725865_a_at) / RFU CAMK2N1 (11719241_x_at) / Fold change /veh CAMK2N1 (11719241_x_at) / RFU C5orf56 (11738088_a_at) / Fold change /veh C5orf56 (11738088_a_at) / RFU OLFML3 (11715873_a_at) / Fold change /veh OLFML3 (11715873_a_at) / RFU LOC100653217 /// NTM (11731650_a_at) / Fold change /veh LOC100653217 /// NTM (11731650_a_at) / RFU MAPK11 (11762145_a_at) / Fold change /veh MAPK11 (11762145_a_at) / RFU FIZ1 (11724087_x_at) / Fold change /veh FIZ1 (11724087_x_at) / RFU OASL (11726364_x_at) / Fold change /veh OASL (11726364_x_at) / RFU SOX15 (11748057_x_at) / Fold change /veh SOX15 (11748057_x_at) / RFU CD79A (11719716_a_at) / Fold change /veh CD79A (11719716_a_at) / RFU HIST1H1D (11736915_at) / Fold change /veh HIST1H1D (11736915_at) / RFU CASKIN2 (11723855_a_at) / Fold change /veh CASKIN2 (11723855_a_at) / RFU LOC730098 (11760151_x_at) / Fold change /veh LOC730098 (11760151_x_at) / RFU OR4N2 (11742367_at) / Fold change /veh OR4N2 (11742367_at) / RFU PRRT2 (11749266_a_at) / Fold change /veh PRRT2 (11749266_a_at) / RFU SNX32 (11753110_a_at) / Fold change /veh SNX32 (11753110_a_at) / RFU CDHR5 (11726645_a_at) / Fold change /veh CDHR5 (11726645_a_at) / RFU RCAN1 (11760418_a_at) / Fold change /veh RCAN1 (11760418_a_at) / RFU FAM167A (11723789_a_at) / Fold change /veh FAM167A (11723789_a_at) / RFU FAM26E (11764081_at) / Fold change /veh FAM26E (11764081_at) / RFU ISYNA1 (11749810_s_at) / Fold change /veh ISYNA1 (11749810_s_at) / RFU ACY1 (11761880_at) / Fold change /veh ACY1 (11761880_at) / RFU 11764098_at / Fold change /veh 11764098_at / RFU SAMD14 (11745864_x_at) / Fold change /veh SAMD14 (11745864_x_at) / RFU NPB (11741838_a_at) / Fold change /veh NPB (11741838_a_at) / RFU TMPRSS6 (11731388_a_at) / Fold change /veh TMPRSS6 (11731388_a_at) / RFU KRTAP10-2 (11738614_at) / Fold change /veh KRTAP10-2 (11738614_at) / RFU ARHGAP8 /// PRR5-ARHGAP8 (11727945_x_at) / Fold change /veh ARHGAP8 /// PRR5-ARHGAP8 (11727945_x_at) / RFU KRTAP5-7 /// NADSYN1 (11734609_at) / Fold change /veh KRTAP5-7 /// NADSYN1 (11734609_at) / RFU RASL12 (11751679_a_at) / Fold change /veh RASL12 (11751679_a_at) / RFU CDKN2B (11736163_a_at) / Fold change /veh CDKN2B (11736163_a_at) / RFU PRF1 (11729649_at) / Fold change /veh PRF1 (11729649_at) / RFU, ZNF638 /// ZNF638-IT1 / Fold change vs veh, ZNF638 /// ZNF638-IT1 / RFU, PANK3 / Fold change vs veh, PANK3 / RFU, SH3YL1 / Fold change vs veh, SH3YL1 / RFU, ZEB2 / Fold change vs veh, ZEB2 / RFU, NRIP1 / Fold change vs veh, NRIP1 / RFU, PTTG1IP / Fold change vs veh, PTTG1IP / RFU, CAPN2 / Fold change vs veh, CAPN2 / RFU, MED14 / Fold change vs veh, MED14 / RFU, SNORA58 / Fold change vs veh, SNORA58 / RFU, C1orf63 / Fold change vs veh, C1orf63 / RFU, LRRFIP1 / Fold change vs veh, LRRFIP1 / RFU, NDUFAF7 / Fold change vs veh, NDUFAF7 / RFU, SLC12A2 / Fold change vs veh, SLC12A2 / RFU, IBTK / Fold change vs veh, IBTK / RFU, ESF1 / Fold change vs veh, ESF1 / Fold change vs veh, TMEM50B / RFU, TAOK1 / Fold change vs veh, TAOK1 / RFU, ACBD3 / Fold change vs veh, ACBD3 / RFU, TMA16 / Fold change vs veh, TMA16 / RFU, RWDD3 / Fold change vs veh, RWDD3 / RFU, BCAT1 / Fold change vs veh, BCAT1 / RFU, EDEM3 / Fold change vs veh, EDEM3 / RFU, TMEM33 / Fold change vs veh, TMEM33 / RFU, WDR75 / Fold change vs veh, WDR75 / RFU, AHCTF1 / Fold change vs veh, AHCTF1 / RFU, TFRC / Fold change vs veh, TFRC / RFU, ZDHHC17 / Fold change vs veh, ZDHHC17 / RFU, NOM1 / Fold change vs veh, NOM1 / RFU, ARL8B / Fold change vs veh, ARL8B / RFU, ZBTB11 / Fold change vs veh, ZBTB11 / RFU, TAMM41 / Fold change vs veh, TAMM41 / RFU, KIAA1704 /// LOC100996395 / Fold change vs veh, KIAA1704 /// LOC100996395 / RFU, ING1 / Fold change vs veh, ING1 / RFU, TRMT61B / Fold change vs veh, TRMT61B / RFU, FUBP3 / Fold change vs veh, FUBP3 / RFU, TP53 / Fold change vs veh, TP53 / RFU, TNKS2 / Fold change vs veh, TNKS2 / RFU, ZFP14 / Fold change vs veh, ZFP14 / RFU, ACTR2 / Fold change vs veh, ACTR2 / RFU, PPP3R1 / Fold change vs veh, PPP3R1 / RFU, PIK3R1 / Fold change vs veh, PIK3R1 / RFU, HNRNPA1 / Fold change vs veh, HNRNPA1 / RFU, RNF170 / Fold change vs veh, RNF170 / RFU, ZNF28 / Fold change vs veh, ZNF28 / RFU, RNGTT / Fold change vs veh, RNGTT / RFU, OGT / Fold change vs veh, OGT / RFU, BRD1 / Fold change vs veh, BRD1 / RFU, MARS / Fold change vs veh, MARS / RFU, ZNF655 / Fold change vs veh, ZNF655 / RFU, FAHD1 / Fold change vs veh, FAHD1 / RFU, BDP1 / Fold change vs veh, BDP1 / RFU, LRRCC1 / Fold change vs veh, LRRCC1 / RFU, ARID1A / Fold change vs veh, ARID1A / RFU, ZNF146 / Fold change vs veh, ZNF146 / RFU, ZNF330 / Fold change vs veh, ZNF330 / RFU, GPN3 / Fold change vs veh, GPN3 / RFU, C9orf123 / Fold change vs veh, C9orf123 / RFU, N4BP2L2 / Fold change vs veh, N4BP2L2 / RFU, ARFIP1 / Fold change vs veh, ARFIP1 / RFU, FAM179B / Fold change vs veh, FAM179B / RFU, BCL10 / Fold change vs veh, BCL10 / RFU, UHRF1BP1L / Fold change vs veh, UHRF1BP1L / RFU, BET1 / Fold change vs veh, BET1 / RFU, CNOT2 / Fold change vs veh, CNOT2 / RFU, ZNF268 / Fold change vs veh, ZNF268 / Fold change vs veh, ZNF507 / RFU, DGCR2 / Fold change vs veh, DGCR2 / RFU, WDSUB1 / Fold change vs veh, WDSUB1 / Fold change vs veh, HSP90B1 /// MIR3652 / RFU, ADSS / Fold change vs veh, ADSS / RFU, GK / Fold change vs veh, GK / RFU, ZNF148 / Fold change vs veh, ZNF148 / RFU, TAF9 / Fold change vs veh, TAF9 / RFU, SLC1A5 / Fold change vs veh, SLC1A5 / RFU, SLMO2 / Fold change vs veh, SLMO2 / RFU, ABCC4 / Fold change vs veh, ABCC4 / RFU, LOC101060439 /// RAP1B / Fold change vs veh, LOC101060439 /// RAP1B / RFU, RFX7 / Fold change vs veh, RFX7 / RFU, GTPBP10 / Fold change vs veh, GTPBP10 / RFU, CNEP1R1 / Fold change vs veh, CNEP1R1 / RFU, BIVM-ERCC5 /// ERCC5 / Fold change vs veh, BIVM-ERCC5 /// ERCC5 / RFU, ILF3 / Fold change vs veh, ILF3 / RFU 11762660_at / Fold change /veh 11762660_at / RFU VCAN (11757783_s_at) / Fold change /veh VCAN (11757783_s_at) / RFU DDX43 (11728927_at) / Fold change /veh DDX43 (11728927_at) / RFU KRT8 (11758188_x_at) / Fold change /veh KRT8 (11758188_x_at) / RFU NKD1 (11759106_at) / Fold change /veh NKD1 (11759106_at) / RFU SRD5A1 (11742802_a_at) / Fold change /veh SRD5A1 (11742802_a_at) / RFU TPSAB1 /// TPSB2 (11721975_s_at) / Fold change /veh TPSAB1 /// TPSB2 (11721975_s_at) / RFU GSTM3 (11746129_a_at) / Fold change /veh GSTM3 (11746129_a_at) / RFU IL23R (11737362_x_at) / Fold change /veh IL23R (11737362_x_at) / RFU TMEM51 (11727254_a_at) / Fold change /veh TMEM51 (11727254_a_at) / RFU PIWIL2 (11732686_x_at) / Fold change /veh PIWIL2 (11732686_x_at) / RFU ORM1 (11744905_x_at) / Fold change /veh ORM1 (11744905_x_at) / RFU CCDC152 (11743942_at) / Fold change /veh CCDC152 (11743942_at) / RFU ECM1 (11717891_a_at) / Fold change /veh ECM1 (11717891_a_at) / RFU IL23R (11748794_a_at) / Fold change /veh IL23R (11748794_a_at) / RFU TNFAIP8L3 (11732012_x_at) / Fold change /veh TNFAIP8L3 (11732012_x_at) / RFU MBOAT4 (11741988_at) / Fold change /veh MBOAT4 (11741988_at) / RFU 11764193_at / Fold change /veh 11764193_at / RFU TMEM53 (11763286_at) / Fold change /veh TMEM53 (11763286_at) / RFU MAGEB2 (11727129_at) / Fold change /veh MAGEB2 (11727129_at) / RFU TMEM200A (11744735_a_at) / Fold change /veh TMEM200A (11744735_a_at) / RFU CCDC152 (11751479_a_at) / Fold change /veh CCDC152 (11751479_a_at) / RFU FAM211A (11726209_a_at) / Fold change /veh FAM211A (11726209_a_at) / RFU RGS16 (11746705_a_at) / Fold change /veh RGS16 (11746705_a_at) / RFU VCAN (11755009_s_at) / Fold change /veh VCAN (11755009_s_at) / RFU RHOB (11743442_s_at) / Fold change /veh RHOB (11743442_s_at) / RFU RGS16 (11720943_a_at) / Fold change /veh RGS16 (11720943_a_at) / RFU RGS16 (11720944_at) / Fold change /veh RGS16 (11720944_at) / RFU, VPS4B / Fold change vs veh, VPS4B / RFU, CREB1 / Fold change vs veh, CREB1 / RFU, DNAJC13 / Fold change vs veh, DNAJC13 / RFU, GNAQ / Fold change vs veh, GNAQ / RFU, CDK5R1 / Fold change vs veh, CDK5R1 / RFU, ZRANB3 / Fold change vs veh, ZRANB3 / RFU, CUL4A / Fold change vs veh, CUL4A / RFU, CCNY / Fold change vs veh, CCNY / RFU, UFL1 / Fold change vs veh, UFL1 / RFU, COG3 / Fold change vs veh, COG3 / RFU, DIAPH2 / Fold change vs veh, DIAPH2 / RFU, SKA2 / Fold change vs veh, SKA2 / RFU, AFF3 / Fold change vs veh, AFF3 / RFU, LMF1 / Fold change vs veh, LMF1 / RFU, IPO11 / Fold change vs veh, IPO11 / RFU, DFFB / Fold change vs veh, DFFB / RFU, FOXP1 / Fold change vs veh, FOXP1 / RFU, CARD8 / Fold change vs veh, CARD8 / RFU, STRN3 / Fold change vs veh, STRN3 / RFU, ADK / Fold change vs veh, ADK / RFU, RASSF2 / Fold change vs veh, RASSF2 / RFU, WIPF1 / Fold change vs veh, WIPF1 / RFU, LARP1B / Fold change vs veh, LARP1B / RFU, RASA1 / Fold change vs veh, RASA1 / RFU, RB1 / Fold change vs veh, RB1 / RFU, PPFIA1 / Fold change vs veh, PPFIA1 / RFU, MAT2A / Fold change vs veh, MAT2A / RFU, CCT5 / Fold change vs veh, CCT5 / RFU, WDR92 / Fold change vs veh, WDR92 / RFU, CUX1 / Fold change vs veh, CUX1 / RFU, TTC7A / Fold change vs veh, TTC7A / RFU, TMEM135 / Fold change vs veh, TMEM135 / RFU, DEPTOR / Fold change vs veh, DEPTOR / RFU, CPM / Fold change vs veh, CPM / RFU, DNAJB6 / Fold change vs veh, DNAJB6 / RFU, CACNA2D3 / Fold change vs veh, CACNA2D3 / RFU, DTX4 / Fold change vs veh, DTX4 / RFU, TFCP2 / Fold change vs veh, TFCP2 / RFU, GMCL1 /// GMCL1P1 / Fold change vs veh, GMCL1 /// GMCL1P1 / RFU, AEBP2 / Fold change vs veh, AEBP2 / RFU, SNHG1 /// SNORD22 /// SNORD25 /// SNORD26 /// SNORD27 /// SNORD28 /// SNORD29 /// SNORD31 / Fold change vs veh, SNHG1 /// SNORD22 /// SNORD25 /// SNORD26 /// SNORD27 /// SNORD28 /// SNORD29 /// SNORD31 / Fold change (Aza/veh), C12orf56 (ProbeSet 11735607_a_at) / Fold change (ACY-1035/veh), C12orf56 (ProbeSet 11735607_a_at) / Fold change (Aza/veh), FGFR1OP (ProbeSet 11751329_s_at) / Fold change (ACY-1035/veh), FGFR1OP (ProbeSet 11751329_s_at) / Fold change (Aza/veh), VPS36 (ProbeSet 11739960_a_at) / Fold change (ACY-1035/veh), VPS36 (ProbeSet 11739960_a_at) / RFU SYPL1 (11715823_x_at) / Fold change /veh SYPL1 (11715823_x_at) / RFU IGFBP7 (11715501_s_at) / Fold change /veh IGFBP7 (11715501_s_at) / RFU REEP3 (11722064_at) / Fold change /veh REEP3 (11722064_at) / RFU IGLL1 (11728026_x_at) / Fold change /veh IGLL1 (11728026_x_at): dose or concentration left out as unconfirmed
Settings: ProbeSet 11759094_a_at; LIST D

In the case of `Nc1ncn([C@@H]2O[C@H](CO)[C@@H](O)[C@H]2O)c(=O)n1` [azacitidine], the “Fold change vs veh, GNAQ” value is reported as 0.76.
